Results taken from PubChem BioAssay AID2060493 (Molecular Pharmacology Branch, DTP, NCI, 2025).

Tested on: 616215-338-R-J1-PDC tumor spheroids, viability
Test: Anticancer human tumor 616215-338-R-J1-PDC patient-derived colon adenocarcinoma cell line growth inhibition [GQUAD]
Conditions: spheroids with HUVEC and MSC; for IC50: curve of first compound; for viability, T/C: stronger effect = lower value
Method in brief: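 Tumor cells were grown as complex spheroids with HUVEC endothelial cells and mesenchymal stem cells as stroma. G-quadruplex stabilizers were combined with targeted agents over half-log dilutions from near the clinical Cmax, or from 10 microM.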

[1] = second compound 0.0316 µM, first compound 0.0316 µM
[2] = second compound 0.0316 µM, first compound 0.1 µM
[3] = second compound 0.0316 µM, first compound 0.316 µM
[4] = second compound 0.0316 µM, first compound 1 µM
[5] = second compound 0.0316 µM, first compound 3.16 µM
[6] = second compound 0.0316 µM, first compound 10 µM
[7] = second compound 0.1 µM, first compound 0.0316 µM
[8] = second compound 0.1 µM, first compound 0.1 µM
[9] = second compound 0.1 µM, first compound 0.316 µM
[10] = second compound 0.1 µM, first compound 1 µM
[11] = second compound 0.1 µM, first compound 3.16 µM
[12] = second compound 0.1 µM, first compound 10 µM
[13] = second compound 0.316 µM, first compound 0.0316 µM
[14] = second compound 0.316 µM, first compound 0.1 µM
[15] = second compound 0.316 µM, first compound 0.316 µM
[16] = second compound 0.316 µM, first compound 1 µM
[17] = second compound 0.316 µM, first compound 3.16 µM
[18] = second compound 0.316 µM, first compound 10 µM
[19] = second compound 1 µM, first compound 0.0316 µM
[20] = second compound 1 µM, first compound 0.1 µM
[21] = second compound 1 µM, first compound 0.316 µM
[22] = second compound 1 µM, first compound 1 µM
[23] = second compound 1 µM, first compound 3.16 µM
[24] = second compound 1 µM, first compound 10 µM
[25] = second compound 3.16 µM, first compound 0.0316 µM
[26] = second compound 3.16 µM, first compound 0.1 µM
[27] = second compound 3.16 µM, first compound 0.316 µM
[28] = second compound 3.16 µM, first compound 1 µM
[29] = second compound 3.16 µM, first compound 3.16 µM
[30] = second compound 3.16 µM, first compound 10 µM
[31] = second compound 10 µM, first compound 0.0316 µM
[32] = second compound 10 µM, first compound 0.1 µM
[33] = second compound 10 µM, first compound 0.316 µM
[34] = second compound 10 µM, first compound 1 µM
[35] = second compound 10 µM, first compound 3.16 µM
[36] = second compound 10 µM, first compound 10 µM
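Further: spheroids exposed to agents for 7 days before readout.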
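Wherever viability, T/C is given: percent viability relative to DMSO vehicle control wells taken as 100%.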

COc1ccc([C@@H](O)c2cc(-c3ncnc4cc(N5CCOCC5)ccc34)c(F)cc2Cl)nn1 + Cc1[nH]c2ccc(F)cc2c1-c1nc2c3cccnc3c3ncccc3c2[nH]1
IC50 (second compound 0.0316 µM): > 10 µM | IC50 (second compound 0.1 µM): > 10 µM | IC50 (second compound 0.316 µM): > 10 µM | IC50 (second compound 1 µM): > 10 µM | IC50 (second compound 3.16 µM): > 10 µM | IC50 (second compound 10 µM): 8.73 µM | viability, T/C [1]: 106% | viability, T/C [2]: 108% | viability, T/C [3]: 101% | viability, T/C [4]: 105% | viability, T/C [5]: 106% | viability, T/C [6]: 53.6% | viability, T/C [7]: 108% | viability, T/C [8]: 104% | viability, T/C [9]: 110% | viability, T/C [10]: 104% | viability, T/C [11]: 104% | viability, T/C [12]: 58.4% | viability, T/C [13]: 104% | viability, T/C [14]: 111% | viability, T/C [15]: 111% | viability, T/C [16]: 111% | viability, T/C [17]: 111% | viability, T/C [18]: 61% | viability, T/C [19]: 101% | viability, T/C [20]: 99.2% | viability, T/C [21]: 104% | viability, T/C [22]: 96.8% | viability, T/C [23]: 90.2% | viability, T/C [24]: 72.5% | viability, T/C [25]: 96.7% | viability, T/C [26]: 99.2% | viability, T/C [27]: 90% | viability, T/C [28]: 97.8% | viability, T/C [29]: 97.4% | viability, T/C [30]: 51.2% | viability, T/C [31]: 90.3% | viability, T/C [32]: 101% | viability, T/C [33]: 97.4% | viability, T/C [34]: 117% | viability, T/C [35]: 100% | viability, T/C [36]: 43.2%

C#Cc1c(F)ccc2cc(O)cc(-c3ncc4c(N5CC6CCC(C5)N6)nc(OCC56CCCN5CC(F)C6)nc4c3F)c12 (stereo unspecified) + CN(C)c1ccc(Nc2c3ccc(NC(=O)CCN4CCCC4)cc3nc3cc(NC(=O)CCN4CCCC4)ccc23)cc1
IC50 (second compound 0.0316 µM): > 10 µM | IC50 (second compound 0.1 µM): 9.07 µM | IC50 (second compound 0.316 µM): > 10 µM | IC50 (second compound 1 µM): 9.22 µM | IC50 (second compound 3.16 µM): 8.57 µM | IC50 (second compound 10 µM): 3.02 µM | viability, T/C [1]: 91.1% | viability, T/C [2]: 103% | viability, T/C [3]: 102% | viability, T/C [4]: 113% | viability, T/C [5]: 108% | viability, T/C [6]: 61.4% | viability, T/C [7]: 103% | viability, T/C [8]: 105% | viability, T/C [9]: 111% | viability, T/C [10]: 111% | viability, T/C [11]: 105% | viability, T/C [12]: 44.9% | viability, T/C [13]: 106% | viability, T/C [14]: 109% | viability, T/C [15]: 110% | viability, T/C [16]: 105% | viability, T/C [17]: 90.4% | viability, T/C [18]: 64.3% | viability, T/C [19]: 109% | viability, T/C [20]: 100% | viability, T/C [21]: 106% | viability, T/C [22]: 105% | viability, T/C [23]: 98% | viability, T/C [24]: 46.3% | viability, T/C [25]: 109% | viability, T/C [26]: 86.8% | viability, T/C [27]: 100% | viability, T/C [28]: 93.5% | viability, T/C [29]: 106% | viability, T/C [30]: 42.3% | viability, T/C [31]: 99.4% | viability, T/C [32]: 79.6% | viability, T/C [33]: 94.2% | viability, T/C [34]: 67.5% | viability, T/C [35]: 50.1% | viability, T/C [36]: 22.4%

CC[C@@]1(O)C(=O)OCc2c1cc1n(c2=O)Cc2cc3c(CN(C)C)c(O)ccc3nc2-1 + Cc1cnc(CNC(=O)c2c(=O)c3ccc(N4CCCN(C)CC4)nc3n3c2sc2ccccc23)cn1
IC50 (second compound 0.0316 µM): 0.274 µM | IC50 (second compound 0.1 µM): 0.142 µM | IC50 (second compound 0.316 µM): < 0.000999 µM | IC50 (second compound 1 µM): < 0.000999 µM | IC50 (second compound 3.16 µM): < 0.000999 µM | IC50 (second compound 10 µM): < 0.000999 µM | viability, T/C (second compound 0.0316 µM, first compound 0.000999 µM): 116% | viability, T/C (second compound 0.0316 µM, first compound 0.00316 µM): 102% | viability, T/C (second compound 0.0316 µM, first compound 0.00999 µM): 92.5% | viability, T/C [1]: 94.9% | viability, T/C (second compound 0.0316 µM, first compound 0.0999 µM): 87% | viability, T/C [3]: 43.7% | viability, T/C (second compound 0.1 µM, first compound 0.000999 µM): 81.5% | viability, T/C (second compound 0.1 µM, first compound 0.00316 µM): 68.1% | viability, T/C (second compound 0.1 µM, first compound 0.00999 µM): 64.2% | viability, T/C [7]: 74.8% | viability, T/C (second compound 0.1 µM, first compound 0.0999 µM): 54.1% | viability, T/C [9]: 35.4% | viability, T/C (second compound 0.316 µM, first compound 0.000999 µM): 38.5% | viability, T/C (second compound 0.316 µM, first compound 0.00316 µM): 45.3% | viability, T/C (second compound 0.316 µM, first compound 0.00999 µM): 39.2% | viability, T/C [13]: 40.5% | viability, T/C (second compound 0.316 µM, first compound 0.0999 µM): 53.4% | viability, T/C [15]: 40.2% | viability, T/C (second compound 1 µM, first compound 0.000999 µM): 36.9% | viability, T/C (second compound 1 µM, first compound 0.00316 µM): 38.4% | viability, T/C (second compound 1 µM, first compound 0.00999 µM): 32.4% | viability, T/C [19]: 27.7% | viability, T/C (second compound 1 µM, first compound 0.0999 µM): 24.9% | viability, T/C [21]: 25.3% | viability, T/C (second compound 3.16 µM, first compound 0.000999 µM): 37.1% | viability, T/C (second compound 3.16 µM, first compound 0.00316 µM): 36.5% | viability, T/C (second compound 3.16 µM, first compound 0.00999 µM): 31.6% | viability, T/C [25]: 34.2% | viability, T/C (second compound 3.16 µM, first compound 0.0999 µM): 29.3% | viability, T/C [27]: 18.5% | viability, T/C (second compound 10 µM, first compound 0.000999 µM): 31.9% | viability, T/C (second compound 10 µM, first compound 0.00316 µM): 25% | viability, T/C (second compound 10 µM, first compound 0.00999 µM): 42.2% | viability, T/C [31]: 24.2% | viability, T/C (second compound 10 µM, first compound 0.0999 µM): 25.3% | viability, T/C [33]: 16.1%
